According to patent publication US11078202B2, “β-lactamase inhibitor and use thereof” (priority 2018, dated 2021):
Counter-ions that a name gives are not always drawn.

Legend:
Format in all cases: cell-based
[1] = tested on: Klebsiella pneumoniae XNWB 0006; assay: MIC assay of test compounds combined with imipenem (4 μg/mL); details: imipenem 4 μg/mL fixed
Experimental: (§1) The bacterial strains used for the minimum inhibitory concentration (MIC) test were frozen in a −80° C. ULT freezer and thawed 2 days before use. A small amount of frozen bacterial strains were scraped using a sterile inoculating loop, streaked onto a TSA solid culture dish for inoculation, and then cultured for 20-24 h at 35±2° C. in a normal atmospheric environment. 5-10 colonies with similar morphology were picked from the culture dish using a sterile inoculating loop and then re-streaked onto a suitable solid culture dish. Then the dish was placed into a normal incubator for culture for 20-24 h at 35±2° C. 5-10 single bacterial colonies were picked from the solid culture dish, resuspended in 500 μL of 0.9% NaCl, and adjusted to an OD600 of 0.1-0.15 with a spectrophotometer. The bacteria were then diluted 300-fold with 1.1×CAMHB. […] Dilution of test compounds: […] 2 μL of each compound in the dilution master plate of the test compounds was transferred to the corresponding well of the assay plates. In the mean time, 2 μL of 100% DMSO was transferred to the compound-free wells (GC and SC wells). (1) 8 μL of imipenem in the additive plate of imipenem was transferred to the corresponding wells of the assay plates; (2) 8 μL of ceftazidime in the additive plate of ceftazidime was transferred to the corresponding wells of the assay plates; (3) 8 μL of ampicillin in the additive plate of ampicillin was transferred to the corresponding wells of the assay plates. 90 μL of corresponding bacterial inocula were added to wells (except for SC wells) of the assay plates. After addition, the 6 assay plates were covered by sterile covers. The mixtures in the assay plates were centrifuged by a centrifuge at 1000 rpm for 30 s, and mixed uniformly by oscillating with a microplate oscillator at 800 rpm for 1 min, and then cultured in a common incubator for 16-20 h at 35±2° C. The minimum inhibitory concentration of each compound was recorded by reference to guidelines from the Clinical and Laboratory Standards Institute. […] The effect of the test compounds in combination with imipenem, ceftazidime, and ampicillin was also tested. […] The bacterial inocula in the assay plates were resuscitated from TSA and diluted in CAMHB, while growth controls (GC wells) and sterile controls (SC wells) were set up in the assay plates. The minimum inhibitory concentration of each compound combination against different bacteria was observed and recorded after the assay plates were incubated in a common incubator at 35±2° C. for 16-20 h, and the results are shown in Tables 1-3.

[2] = tested on: Klebsiella pneumoniae XNWB 0003; assay: as above; details: imipenem 4 μg/mL fixed
Experimental: as §1

[3] = tested on: Klebsiella pneumoniae XNWB 0001; assay: as above; details: imipenem 4 μg/mL fixed
Experimental: as §1

[4] = tested on: Acinetobacter baumannii XNWB 0007; assay: as above; details: imipenem 4 μg/mL fixed
Experimental: as §1

[5] = tested on: Klebsiella pneumoniae XNWB 0005; assay: as above; details: imipenem 4 μg/mL fixed
Experimental: as §1

[6] = tested on: Klebsiella pneumoniae XNWB 0004; assay: as above; details: imipenem 4 μg/mL fixed
Experimental: as §1

[7] = tested on: Pseudomonas aeruginosa XNWB 0008; assay: as above; details: imipenem 4 μg/mL fixed
Experimental: as §1

[8] = tested on: Klebsiella pneumoniae XNWB 0002; assay: as above; details: imipenem 4 μg/mL fixed
Experimental: as §1

[9] = tested on: Klebsiella pneumoniae XNWB 0006; assay: MIC assay of test compounds combined with ceftazidime (8 μg/mL); details: ceftazidime 8 μg/mL fixed
Experimental: as §1

[10] = tested on: Klebsiella pneumoniae XNWB 0003; assay: as above; details: ceftazidime 8 μg/mL fixed
Experimental: as §1

[11] = tested on: Klebsiella pneumoniae XNWB 0001; assay: as above; details: ceftazidime 8 μg/mL fixed
Experimental: as §1

[12] = tested on: Acinetobacter baumannii XNWB 0007; assay: as above; details: ceftazidime 8 μg/mL fixed
Experimental: as §1

[13] = tested on: Klebsiella pneumoniae XNWB 0005; assay: as above; details: ceftazidime 8 μg/mL fixed
Experimental: as §1

[14] = tested on: Klebsiella pneumoniae XNWB 0004; assay: as above; details: ceftazidime 8 μg/mL fixed
Experimental: as §1

[15] = tested on: Pseudomonas aeruginosa XNWB 0008; assay: as above; details: ceftazidime 8 μg/mL fixed
Experimental: as §1

[16] = tested on: Klebsiella pneumoniae XNWB 0002; assay: as above; details: ceftazidime 8 μg/mL fixed
Experimental: as §1

SMILES	The minimum concentration of test compounds combined with imipenem (4 μg/mL) for bacteriostasis [1]	The minimum concentration of test compounds combined with imipenem (4 μg/mL) for bacteriostasis [2]	The minimum concentration of test compounds combined with imipenem (4 μg/mL) for bacteriostasis [3]	The minimum concentration of test compounds combined with imipenem (4 μg/mL) for bacteriostasis [4]	The minimum concentration of test compounds combined with imipenem (4 μg/mL) for bacteriostasis [5]	The minimum concentration of test compounds combined with imipenem (4 μg/mL) for bacteriostasis [6]	The minimum concentration of test compounds combined with imipenem (4 μg/mL) for bacteriostasis [7]	The minimum concentration of test compounds combined with imipenem (4 μg/mL) for bacteriostasis [8]	The minimum concentration of test compounds combined with ceftazidime (8 μg/mL) for bacteriostasis [9]	The minimum concentration of test compounds combined with ceftazidime (8 μg/mL) for bacteriostasis [10]	The minimum concentration of test compounds combined with ceftazidime (8 μg/mL) for bacteriostasis [11]	The minimum concentration of test compounds combined with ceftazidime (8 μg/mL) for bacteriostasis [12]	The minimum concentration of test compounds combined with ceftazidime (8 μg/mL) for bacteriostasis [13]	The minimum concentration of test compounds combined with ceftazidime (8 μg/mL) for bacteriostasis [14]	The minimum concentration of test compounds combined with ceftazidime (8 μg/mL) for bacteriostasis [15]	The minimum concentration of test compounds combined with ceftazidime (8 μg/mL) for bacteriostasis [16]
O=C1N2C[C@H](N1OS(=O)(=O)O)C1(CC1)C[C@H]2c1nnco1 [Example 1, (1R,4S)-4-(1,3,4-oxadiazol-2-yl)-6-oxo-5,7-diazaspiro[bicyclo[3.2.1]octane-2,1′-cyclopropan]-7-yl sulfate]	A (A: <8 μg/mL)	A (A: <8 μg/mL)	A (A: <8 μg/mL)	C (C: 16-128 μg/mL)	A (A: <8 μg/mL)	A (A: <8 μg/mL)	C (C: 16-128 μg/mL)	A (A: <8 μg/mL)	A (A: <8 μg/mL)	A (A: <8 μg/mL)	A (A: <8 μg/mL)	C (C: 16-128 μg/mL)	A (A: <8 μg/mL)	B (B: 8-16 μg/mL)	C (C: 16-128 μg/mL)	A (A: <8 μg/mL)
N=C1NC[C@@H](c2nnc([C@@H]3CC4(CC4)[C@@H]4CN3C(=O)N4OS(=O)(=O)O)o2)N1 [Example 55, (1R,4S)-4-(5-((S)-2-iminoimidazolidin-4-yl)-1,3,4-oxadiazol-2-yl)-6-oxo-5,7-diazaspiro [bicyclo[3.2.1]octane-2,1′-cyclopropan]-7-yl sulfate]	A (A: <8 μg/mL)	A (A: <8 μg/mL)	A (A: <8 μg/mL)	A (A: <8 μg/mL)	A (A: <8 μg/mL)	A (A: <8 μg/mL)	A (A: <8 μg/mL)	A (A: <8 μg/mL)	A (A: <8 μg/mL)	A (A: <8 μg/mL)	A (A: <8 μg/mL)	C (C: 16-128 μg/mL)	A (A: <8 μg/mL)	A (A: <8 μg/mL)	B (B: 8-16 μg/mL)	A (A: <8 μg/mL)
